# Results published in patent US12121614B2, “Delayed release composition for peroral administration” (VICORE PHARMA AB, priority 2020, dated 2024).
# Experiment: Phase I clinical trial: safety and tolerability of C21 in healthy subjects
# Assay type: in vivo, human
# Details: healthy male and female subjects, gradual escalation of dose
# Description: A Phase I clinical trial was conducted to evaluate the safety, tolerability, and pharmacokinetics of C21 in healthy male and female subjects. The study design allowed a gradual escalation of dose with intensive clinical data and PK monitoring to ensure the safety and wellbeing of subjects.
# The study was designed and conducted in accordance with the CRO's standard operating procedures (SOPs), which comply with the ethical principles laid down in the International Council for Harmonisation (ICH) Good Clinical Practice (GCP) guidance as required by the major regulatory authorities, and in accordance with the Declaration of Helsinki as amended by the 48th General Assembly in October 1996.
compound,measurement,value
"CCCCOC(=O)NS(=O)(=O)c1sc(CC(C)C)cc1-c1ccc(Cn2ccnc2)cc1 [C21, N-butyloxycarbonyl-3-(4-imidazol-1-ylmethylphenyl)-5-iso-butylthiophene-2-sulfonamide]",safety and tolerability,safe and generally well tolerated
same,serious adverse events,No serious adverse events
